Laboratory results taken from patent publication EP3807270B1, “NOVEL HETEROARYL HETEROCYCLYL COMPOUNDS FOR THE TREATMENT OF AUTOIMMUNE DISEASE” (F. Hoffmann-La Roche AG, priority 2018, dated 2019).

Columns and labels:
CYP2D6 = target: T1, CYP2D6 (Homo sapiens, UniProt P10635); assay: CYP inhibition assay in human liver microsome; assay type: in vitro ADME; conditions: human liver microsomes, probe dextromethorphan, 10µM test compound, dextromethorphan substrate, <0: not or weak inhibitor, read-out: CYP 2D6 inhibition %@10µM
T1 construct: tissue BD-Gentest 452117; host or cells: human liver microsomes
How it was run: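 HLM mixed with CYP2D6 substrate, preincubated 10 min at 37 °C, started with NADPH regenerating system and run 10 min at 37 °C before acetonitrile quench. Metabolite measured by RapidFire MS/MS against D3-dextrorphan internal standard. % inhibition scaled between DMSO and concentrated-inhibitor controls.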

hTLR7 = target: T2, hTLR7 (Homo sapiens, UniProt Q9NYK1); assay: HEK293-Blue-hTLR-7 cells assay (SEAP reporter, R848 stimulation); assay type: cell-based; set-up: host or cells: HEK293 (HEK-Blue); conditions: HEK293-Blue-hTLR7 cells, R848, 20 hrs; read-out: HEK/hTLR7 IC50
T2 sequence (Q9NYK1 27-1049): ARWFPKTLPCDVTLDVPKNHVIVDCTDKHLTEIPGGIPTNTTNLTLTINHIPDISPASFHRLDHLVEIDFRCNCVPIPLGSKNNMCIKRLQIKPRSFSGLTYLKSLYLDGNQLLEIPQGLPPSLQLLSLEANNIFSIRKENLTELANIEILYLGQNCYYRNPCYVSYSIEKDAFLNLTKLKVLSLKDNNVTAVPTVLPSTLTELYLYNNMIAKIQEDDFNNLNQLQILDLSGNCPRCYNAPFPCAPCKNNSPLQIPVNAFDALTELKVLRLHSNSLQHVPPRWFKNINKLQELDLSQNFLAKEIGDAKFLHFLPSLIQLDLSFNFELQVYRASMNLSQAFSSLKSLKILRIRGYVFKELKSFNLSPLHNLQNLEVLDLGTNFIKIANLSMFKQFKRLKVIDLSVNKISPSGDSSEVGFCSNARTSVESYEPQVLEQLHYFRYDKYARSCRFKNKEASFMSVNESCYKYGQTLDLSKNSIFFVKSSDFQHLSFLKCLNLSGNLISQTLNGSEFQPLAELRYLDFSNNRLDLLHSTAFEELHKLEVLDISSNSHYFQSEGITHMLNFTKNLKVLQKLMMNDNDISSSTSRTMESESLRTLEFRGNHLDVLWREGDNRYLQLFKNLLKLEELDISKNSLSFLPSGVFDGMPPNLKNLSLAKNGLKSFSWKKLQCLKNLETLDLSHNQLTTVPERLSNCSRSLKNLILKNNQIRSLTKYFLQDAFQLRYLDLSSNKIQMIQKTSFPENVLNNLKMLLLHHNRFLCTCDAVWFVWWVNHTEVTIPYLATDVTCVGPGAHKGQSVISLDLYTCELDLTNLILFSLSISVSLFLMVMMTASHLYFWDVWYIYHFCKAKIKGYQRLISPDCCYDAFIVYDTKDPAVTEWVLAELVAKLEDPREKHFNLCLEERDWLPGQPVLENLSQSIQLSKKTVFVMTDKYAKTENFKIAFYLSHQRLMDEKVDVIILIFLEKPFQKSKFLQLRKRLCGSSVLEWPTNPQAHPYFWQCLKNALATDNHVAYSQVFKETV
How it was run: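 HEK293-Blue cells stably expressing human TLR7 with an NF-κB/AP-1-driven SEAP reporter were treated with serially diluted compound (1% DMSO final) plus R848 for 20 h at 37 °C. Supernatant SEAP activity was measured with QUANTI-Blue substrate after 2 h at 37 °C, with absorbance read at 620-655 nm.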

T1 sequence (P10635 whole entry): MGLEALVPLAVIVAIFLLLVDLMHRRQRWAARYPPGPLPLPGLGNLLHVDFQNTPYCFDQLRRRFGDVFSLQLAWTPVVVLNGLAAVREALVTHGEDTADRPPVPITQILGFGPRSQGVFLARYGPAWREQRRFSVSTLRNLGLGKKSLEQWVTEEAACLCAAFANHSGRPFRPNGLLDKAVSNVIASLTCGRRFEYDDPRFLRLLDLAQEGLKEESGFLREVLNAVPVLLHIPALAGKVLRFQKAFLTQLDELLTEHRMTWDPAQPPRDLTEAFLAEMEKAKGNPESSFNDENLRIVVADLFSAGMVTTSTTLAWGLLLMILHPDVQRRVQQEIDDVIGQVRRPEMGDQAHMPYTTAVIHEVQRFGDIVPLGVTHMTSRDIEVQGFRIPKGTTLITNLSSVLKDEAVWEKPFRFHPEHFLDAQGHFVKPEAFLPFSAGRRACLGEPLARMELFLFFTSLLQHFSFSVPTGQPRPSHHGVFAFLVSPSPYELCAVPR

SMILES | inhibition at 10 min, 10 µM (CYP2D6) [%] | IC50 (hTLR7) [µM]
C[C@@H]1CN(c2ccc(C#N)c3ncccc23)C[C@H](CN2CCC(Nc3ncc4c(n3)CNC4)C2)O1 (stereo partly drawn) [Example 32, 5-[(2S,6R)-2-[[3-(6,7-dihydro-5H-pyrrolo[3,4-d]pyrimidin-2-ylamino)pyrrolidin-1-yl]methyl]-6-methyl-morpholin-4-yl]quinoline-8-carbonitrile] | 17.5 | 0.069
C[C@@H]1CN(c2ccc(C#N)c3ncccc23)C[C@H](CN2CCCN(c3nc4c(s3)CNCC4)CC2)O1 [Example 33, 5-[(2R,6S)-2-methyl-6-[[4-(4,5,6,7-tetrahydrothiazolo[5,4-c]pyridin-2-yl)-1,4-diazepan-1-yl]methyl]morpholin-4-yl]quinoline-8-carbonitrile] | -10.5 | 0.017
C[C@@H]1CN(c2ccc(C#N)c3ncccc23)C[C@H](CN2CCN(c3ccc4c(n3)CCN(C)C4)CC2)O1 [Example 34, 5-[(2R,6S)-2-methyl-6-[[4-(6-methyl-7,8-dihydro-5H-1,6-naphthyridin-2-yl)piperazin-1-yl]methyl]morpholin-4-yl]quinoline-8-carbonitrile] | 4 | 0.018
C[C@@H]1CN(c2ccc(C#N)c3ncccc23)C[C@H](CN2CC3(CCN3c3ccc4c(n3)CCNC4)C2)O1 [Example 36, 5-[(2R,6S)-2-methyl-6-[[1-(5,6,7,8-tetrahydro-1,6-naphthyridin-2-yl)-1,6-diazaspiro[3.3]heptan-6-yl]methyl]morpholin-4-yl]quinoline-8-carbonitrile] | 13.5 | 0.026
C[C@@H]1CN(c2ccc(C#N)c3ncccc23)C[C@H](CN2CCCN(c3ncc4c(n3)CCNC4)CC2)O1 [Example 39, 5-[(2R,6S)-2-methyl-6-[[4-(5,6,7,8-tetrahydropyrido[4,3-d]pyrimidin-2-yl)-1,4-diazepan-1-yl]methyl]morpholin-4-yl]quinoline-8-carbonitrile] | 8.5 | 0.008
C[C@@H]1CN(c2ccc(C#N)c3ncccc23)C[C@H](CN2CCN(c3cnc4c(n3)CNCC4)CC2)O1 [Example 40, 5-[(2R,6S)-2-methyl-6-[[4-(5,6,7,8-tetrahydropyrido[3,4-b]pyrazin-3-yl)piperazin-1-yl]methyl]morpholin-4-yl]quinoline-8-carbonitrile] | 8 | 0.007
CC1NCc2ncc(N3CCN(C[C@H]4CN(c5ccc(C#N)c6ncccc56)C[C@@H](C)O4)CC3)cc21 (stereo partly drawn) [Example 41, 5-[(2R,6S)-2-methyl-6-[[4-(5-methyl-6,7-dihydro-5H-pyrrolo[3,4-b]pyridin-3-yl)piperazin-1-yl]methyl]morpholin-4-yl]quinoline-8-carbonitrile] | -2 | 0.028
C[C@@H]1CN(c2ccc(C#N)c3ncccc23)C[C@H](CN2CC3(C2)CN(c2ccc4c(c2)CCNC4)CCO3)O1 [Example 44, 5-[(2R,6S)-2-methyl-6-[[8-(1,2,3,4-tetrahydroisoquinolin-6-yl)-5-oxa-2,8-diazaspiro[3.5]nonan-2-yl]methyl]morpholin-4-yl]quinoline-8-carbonitrile] | 4 | 0.011
C[C@@H]1CN(c2ccc(C#N)c3ncccc23)C[C@H](CN2CC3(C2)CN(c2ccc4c(n2)CNCC4)CCO3)O1 [Example 45, 5-[(2R,6S)-2-methyl-6-[[8-(5,6,7,8-tetrahydro-1,7-naphthyridin-2-yl)-5-oxa-2,8-diazaspiro[3.5]nonan-2-yl]methyl]morpholin-4-yl]quinoline-8-carbonitrile] | 9 | 0.009
C[C@@H]1CN(c2ccc(C#N)c3ncccc23)C[C@H](CN2CC3(C2)CN(c2cnc4c(c2)CCNC4)CCO3)O1 [Example 46, 5-[(2R,6S)-2-methyl-6-[[8-(5,6,7,8-tetrahydro-1,7-naphthyridin-3-yl)-5-oxa-2,8-diazaspiro[3.5]nonan-2-yl]methyl]morpholin-4-yl]quinoline-8-carbonitrile] | 12 | 0.012
